The text below walks through data of ChEMBL document CHEMBL1130174, “Pyrrolidine-3-carboxylic acids as endothelin antagonists. 2. Sulfonamide-based ETA/ETB mixed antagonists” (J Med Chem, 1997).

Test [1] has as its target T1, Endothelin receptor type B (Sus scrofa, UniProt P35463).
T1 sequence (P35463 whole entry): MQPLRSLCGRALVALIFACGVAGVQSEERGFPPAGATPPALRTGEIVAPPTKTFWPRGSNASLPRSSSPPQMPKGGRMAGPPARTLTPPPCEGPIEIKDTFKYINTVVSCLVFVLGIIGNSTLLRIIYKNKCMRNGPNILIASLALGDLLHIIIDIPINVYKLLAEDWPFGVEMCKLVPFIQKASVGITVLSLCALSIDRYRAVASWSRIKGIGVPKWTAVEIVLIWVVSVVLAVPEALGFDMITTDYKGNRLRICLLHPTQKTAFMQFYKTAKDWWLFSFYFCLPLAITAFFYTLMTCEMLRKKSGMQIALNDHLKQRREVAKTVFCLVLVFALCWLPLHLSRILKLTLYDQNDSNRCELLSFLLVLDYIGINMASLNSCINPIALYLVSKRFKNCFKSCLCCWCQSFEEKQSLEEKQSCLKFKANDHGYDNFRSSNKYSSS
Briefly: Ability to displace endothelin ([125I]ET-3) from endothelin B receptor derived from cerebellar tissue of porcine.

Test [2] is described as follows: Ratio of endothelin A receptor and endothelin B receptor.
In the next test the target is T2, Endothelin-1 receptor (Rattus norvegicus, UniProt P26684).
T2 sequence (P26684 whole entry): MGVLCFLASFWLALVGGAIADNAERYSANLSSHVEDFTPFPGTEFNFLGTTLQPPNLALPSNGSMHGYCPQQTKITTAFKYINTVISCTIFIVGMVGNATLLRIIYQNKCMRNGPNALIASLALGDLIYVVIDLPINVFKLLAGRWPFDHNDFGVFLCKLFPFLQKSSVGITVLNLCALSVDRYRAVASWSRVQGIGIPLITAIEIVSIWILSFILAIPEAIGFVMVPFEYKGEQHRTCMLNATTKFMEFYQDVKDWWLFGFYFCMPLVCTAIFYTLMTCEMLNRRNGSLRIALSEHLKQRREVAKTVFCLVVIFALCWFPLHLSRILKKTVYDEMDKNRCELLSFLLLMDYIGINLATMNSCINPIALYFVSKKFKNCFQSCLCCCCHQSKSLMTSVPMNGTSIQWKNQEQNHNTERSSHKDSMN
Briefly: Ability to displace endothelin ([125I]ET1) from endothelin A receptor derived from MMQ cells of rodent. It counts as cell-based, Rodentia sp.

As usually defined, the IC50 is the point on the concentration scale where inhibition reaches its midpoint. Read a high IC50 as weaker potency in that assay. `CCCN(CCN1C[C@H](c2ccc3c(c2)OCO3)[C@@H](C(=O)O)[C@@H]1c1ccc(OC)c(F)c1)S(=O)(=O)CCCC(F)(F)F` (stereo in doubt; 14f): the IC50 in test [1] stood at 0.98 nM.

With `CCCS(=O)(=O)N(CCN1C[C@H](c2ccc3c(c2)OCO3)[C@@H](C(=O)O)[C@@H]1c1ccc(OC)cc1)CC(C)C`, the IC50 in test [1] amounted to 62 nM; at Endothelin-1 receptor, 8.1 nM. Moreover, in test [2], the Ratio worked out at 7.7.

As to `CCCN(CCN1C[C@H](c2ccc3c(c2)OCO3)[C@@H](C(=O)O)[C@@H]1c1ccc(OC)cc1)S(=O)(=O)CC`, the IC50 in test [1] came to 95 nM; on Endothelin-1 receptor it was 1.2 nM. Besides, in test [2], the Ratio is 79.

Consider `CCCN(CCN1C[C@H](c2ccc3c(c2)OCO3)[C@@H](C(=O)O)[C@@H]1c1ccc(OC)c(F)c1)S(=O)(=O)CCC(C)C`, for which the IC50 came to 1.2 nM in test [1] and 0.46 nM at Endothelin-1 receptor. For the same compound, the Ratio in test [2] is 2.6.

`CCCN(CCN1C[C@H](c2ccc3c(c2)OCO3)[C@@H](C(=O)O)[C@@H]1c1ccc(OC)cc1)S(=O)(=O)c1ccc(Cl)cc1`: the IC50 is 41 nM in test [1] and 6.3 nM on Endothelin-1 receptor. Also, the Ratio in test [2] came to 6.5.

For `CCCCN(CCN1C[C@H](c2ccc3c(c2)OCO3)[C@@H](C(=O)O)[C@@H]1c1ccc(OC)cc1)C(=O)CCC`, the results for the IC50 (in test [1]; on Endothelin-1 receptor) were 850 nM and 20 nM, respectively. The Ratio in test [2] was found to be 43.

For the compound `CCCN(CCN1C[C@H](c2ccc3c(c2)OCO3)[C@@H](C(=O)O)[C@@H]1c1ccc(OC)c(F)c1)S(=O)(=O)Cc1ccccc1`, the IC50 in test [1] turned out to be 2.9 nM; at Endothelin-1 receptor, 2.7 nM. Moreover, the Ratio in test [2] amounted to 1.1.

In the case of `CCCN(CCN1C[C@H](c2ccc3c(c2)OCO3)[C@@H](C(=O)O)[C@@H]1c1ccc(OC)c(F)c1)S(=O)(=O)CC(C)C`, the IC50 in test [1] is 1.6 nM; at Endothelin-1 receptor it was 0.21 nM. Further, in test [2], the Ratio stood at 7.6.

With `CCCN(CCN1C[C@H](c2ccc3c(c2)OCO3)[C@@H](C(=O)O)[C@@H]1c1ccc(OC)cc1)S(=O)(=O)CCOC`, the values for the IC50 (in test [1]; at Endothelin-1 receptor) were 77 nM and 5.2 nM, respectively. Besides, in test [2], the Ratio was 15.

For the compound `CCCCCS(=O)(=O)N(CCC)CCN1C[C@H](c2ccc3c(c2)OCO3)[C@@H](C(=O)O)[C@@H]1c1ccc(OCOC)cc1`, the results for the IC50 (in test [1]; at Endothelin-1 receptor) were 5.2 nM and 0.62 nM, respectively. Further, in test [2], the Ratio was 8.4.

Take `CCCCCS(=O)(=O)N(CCC)CCN1C[C@H](c2ccc3c(c2)OCO3)[C@@H](C(=O)O)[C@@H]1c1ccc(OCCC)cc1`: the figures for the IC50 (in test [1]; on Endothelin-1 receptor) were 610 nM and 48 nM, respectively. Further, in test [2], the Ratio amounted to 13.

As for `CCCCCCS(=O)(=O)N(CCC)CCN1C[C@H](c2ccc3c(c2)OCO3)[C@@H](C(=O)O)[C@@H]1c1ccc(OC)cc1`, the IC50 was 4.5 nM in test [1] and 0.43 nM on Endothelin-1 receptor. In addition, the Ratio in test [2] came to 10.

In turn, `CCCCCCS(=O)(=O)N(CCC)CCN1C[C@H](c2ccc3c(c2)OCO3)[C@@H](C(=O)O)[C@@H]1c1ccc(OC)c(F)c1` (stereo in doubt; 14b) registered an IC50 in test [1] of 1.5 nM.

Consider `CCCCS(=O)(=O)N(CCC)CCN1C[C@H](c2ccc3c(c2)OCO3)[C@@H](C(=O)O)[C@@H]1c1ccc(OC)c(F)c1` (stereo in doubt; 14a), for which the IC50 in test [1] is 1 nM.

As for `CCCN(CCN1C[C@H](c2ccc3c(c2)OCO3)[C@@H](C(=O)O)[C@@H]1c1ccc(OC)c(F)c1)S(=O)(=O)CCCCl` (stereo in doubt; 14e) [listing 1 of 2 here], the Ratio in test [2] came out at 2.5.

With `CCCCCS(=O)(=O)N(CCC)CCN1C[C@H](c2ccc3c(c2)OCO3)[C@@H](C(=O)O)[C@@H]1c1ccc(OC)c(F)c1` (stereo in doubt; 13e), in test [1], the IC50 was found to be 0.85 nM.

On to `CCCN(CCN1C[C@H](c2ccc3c(c2)OCO3)[C@@H](C(=O)O)[C@@H]1c1ccc(OC)c(F)c1)S(=O)(=O)CCCCl` (stereo in doubt; 14e) [listing 2 of 2 here], for which the IC50 in test [1] was 1 nM; on Endothelin-1 receptor, 0.4 nM.

For `CCCN(CCN1C[C@H](c2ccc3c(c2)OCO3)[C@@H](C(=O)O)[C@@H]1c1ccc(OC)cc1)S(=O)(=O)Cc1ccccc1`, the IC50 in test [1] is 34 nM.
